Patent publication US4707481A, “Pyridazinones, their preparation and use, and bronchospasmolytic medicaments containing pyridazinones” (BYK Gulden Lomberg Chemische Fabrik GmbH, priority 1983, dated 1987)
Read-outs that look alike come from different tables or passages of the source.

What was measured:
[1] = system: right ventricle of guinea pigs; test: heart function dP/dtmax, right ventricle of anesthetized guinea pigs; assay type: in vivo, guinea pig
Procedure: The effect of the substances on the contractility of the heart of guinea pigs is tested on animals (.male., 400 to 1000 g) under urethane anesthesia. The change in pressure in the right ventricle of the heart is measured with a tip catheter introduced through the right jugular vein and the maximum rate of pressure rise (dP/dtmax) is determined from this. The heart rate is derived from the pressure waves. […] The test substances were administered intravenously. 5-7 animals were used for each measurement, and the arithmetic mean was calculated from the results.

[2] = system: acetylcholine-induced bronchospasm; test: protective effect against acetylcholine-induced bronchospasm in conscious guinea pigs; assay type: in vivo, guinea pig; conditions: for Doubling of the latency period / Tripling of the latency period: 30 min; for Tripling of the latency period: figure in parentheses
Procedure: The figure in parentheses indicates the number out of 10 animals in which the latency period more than tripled.
The latency period is to be understood to be the time from the start of acetylcholine-atomization until clear signs of asthma appeared.
The time from the start of atomization to the onset of clear respiratory exertion (in certain circumstances, hypoxic convulsion in the lateral position) is measured, and is denoted the latency period.
The test substance is administered orally by gavage (standard dose 100 μmol/kg, volume 1 ml of 4% strength methocel suspension in 0.9% strength sodium chloride solution/kg). […] Prolongation of the latency period to at least twice its length is regarded as a protective effect.

[3] = system: electrically stimulated left atrium of rats; test: positive inotropic action on electrically stimulated left atrium in vitro; design: species or system rat; conditions: for [EC40 pot.] theophylline / [EC40 pot.] substance: Column E, left atrium; for EC40: Rattus norvegicus, Column B, negative logarithm of EC40pot in mol/l, 40% increase in contraction force, read-out: -lg[EC40 pot.] left atrium (converted)
Procedure: The positive inotropic action was tested in vitro on the electrically stimulated left atrium of rats (l.a.).
The positive inotropic action of the compounds was tested in vitro on the electrically stimulated left atrium of rats.
Isometric contractions (HSE force sensor K-30; Watanabe recorder, Linear Corder Mark 5) of isolated, left atria from rats (.male., 250-300 g) in an organ bath (10 ml, Tyrode nutrient solution, 31° C., gassing with carbogen, initial tension of the organs 0.25 g) under electrical stimulation (HSE stimulator, 7 V, 3 ms, 2 Hz) were recorded. […] The particular increase in the contraction force is expressed in % of the starting value before administration of the substance. The concentration of the test substance which potentiates the contraction force of the atrium by 40% compared with the starting value [EC40pot. mol/l], expressed by the negative logarithm of the [EC40pot mol/l]: -lg[EC40pot ] serves as a measure of the cardiotonic activity.

[4] = system: guinea pig hearts isolated and perfused by the Langendorff method; test: left-ventricular pressure and heart rate in isolated perfused Langendorff hearts; conditions: for Emax: Cavia porcellus; for EC20 left-ventricular pressure: dose which leads to a 20% increase in left ventricular pressure
Text: After the animals have been sacrificed by a blow to the neck and exsanguination through the carotid arteries, the thoracic cavity is opened, and the aorta is exposed and looped up with a thread. A cannula, which is attached by tubing to the apparatus from which the nutrient solution slowly drops, is introduced in the direction of the heart and the heart is, quickly after removal from the thorax, connected to the perfusion apparatus. A balloon probe, connected to a Statham pressure sensor, is advanced through a cut through the left atrium into the left ventricle, and is provided with an initial pressure of 40 mm Hg. […] The nutrient solution flowing freely from the coronary sinus into the right atrium is measured with a flow […]) and, together with the change in the left-ventricular pressure and the heart rate determined from this, is recorded on a Watanabe recorder. The substances are administered in a volume of 0.1 ml of nutrient solution, in the dosage indicated in Tab.

[5] = toxicity studies, mouse p.o.; conditions: in vivo, po; for LD50 at 168 h: Column F, mouse p.o., 7 days observation, read-out: Approximate LD50
Procedure: The toxicity studies are carried out on female NMRI mice (body weight 23-30 g). The animals (5 animals per dose) receive food and water ad libitum. Various doses of the substances are administered once as a suspension in methocel via a gavage. The period of observation lasts 7 days. The tolerated dose (TD), that is to say the highest dose at which as yet none of the animals die, is determined by observation. The average lethal dose (LD50), that is to say the dose at which 50% of the animals die, is determined from the dose/action curve by means of linear regression.

[6] = system: chain of tracheal rings of guinea pigs; test: relaxing action on chain of tracheal rings in vitro (bronchospasmolytic action); design: species or system guinea pig; conditions: for EC50: Cavia porcellus, Column A, negative logarithm of EC50 in mol/l, 50% of maximum relaxation by (-)isoprenaline, read-out: -lg[EC50] trachea (converted); for [EC40 pot.] left atrium / [EC50] trachea: Column C, measure of organ-selective activity; for [EC50] theophylline / [EC50] substance: Column D, trachea
Procedure: The relaxing action of the 6-aryl-3[2H]pyridazinones I has been tested in vitro on a chain of tracheal rings (Tr.) of guinea pigs. […] The quotient of [EC40pot. ]left atrium and [ED50 ]trachea serves as a measure of the organ-selective activity.
The bronchospasmolytic action of the compounds on the chain of tracheal rings of the guinea pig was tested in vitro:
Four parallel chains of tracheal rings, each consisting of 6 individual rings, of guinea pigs(.male. and .female., 430-600 g) in an organ bath [5 ml, Krebs-Henseleit solution with added phentolamine (10^-5 mol/l), 37° C., initial tension of the organs 2 g, gassing with carbogen] develop a stable, spontaneous tonic contraction after about 20 to 30 minutes. […] Over a period of 20 to 30 minutes, a complete dose/action curve of the test substance is thus obtained. The particular relaxation is expressed as a percentage fraction of the maximum relaxation which can be achieved by administration of (-)isoprenaline (10^-6 mol/1). The concentration of the test substance which causes 50% of the maximum relaxation which can be achieved, expressed by the negative logarithm of the EC50 mol/l: -lg[EC50 ]is a measure of the bronchodilator activity.

[7] = system: histamine-induced bronchospasm; test: inhibition of histamine-induced bronchospasm in anesthetized guinea pigs; assay type: in vivo, guinea pig; conditions: for inhibition of histamine-induced bronchospasm, TVi / inhibition of histamine-induced bronchospasm, Vmaxe / inhibition of histamine-induced bronchospasm, Vmaxi: 20 μmol/kg i.v.
Procedure: A method for simultaneously recording pharmacodynamic and toxic effects on internal sensitive receptors, on the respiration and the cardiovascular system of guinea pigs was used [U. Kilian, E. Muller, E. Ch. […] To characterize the bronchospasm induced by histamine (0.09-0.18 μmol /kg i.v.), the maximum flow rate of the respiratory air during inspiration (Vmaxi) and expiration (Vmaxe) and the breath volume (BVi) were measured. A histamine spasm before administration of the substance was compared with several histamine spasms after administration of the substance. The test substances were administered intravenously (i.v.) and/or intrajejunally (i.j.). 5 to 10 animals were used per measurement, and the arithmetic mean was calculated from the results.

[8] = after 500 nMol, read-out: Emax left-ventricular pressure
[9] = at Emax, 500 nMol, read-out: Percentage increase in heart rate at Emax

| Structure (SMILES) | [EC40 pot.] theophylline / [EC40 pot.] substance [3] | EC40 [3] [µM] | Emax [4, 8] [%] | Emax [4, 9] [%] | Percentage increase in heart rate at EC20 [4] [%] | EC20 left-ventricular pressure [4] [nmol] | LD50 at 168 h [5] [mg/kg] | EC50 [6] [µM] | [EC40 pot.] left atrium / [EC50] trachea [6] | [EC50] theophylline / [EC50] substance [6] | also measured |
| --- | --- | --- | --- | --- | --- | --- | --- | --- | --- | --- | --- |
| CCCOc1cc(-c2ccc(=O)[nH]n2)ccc1OC [Serial No. 10, 6-(4-methoxy-3-n-propoxyphenyl)-3[2H]pyridazinone] | 661 | 0.631 | 61 | 19 | 9 | 40 | 770 | 0.468 | 1.3 | 288 | Percentage change in dP/dtmax ([1]; 0.3 μmol/kg i.v., 0-10 min (Maximum)): 42%; Percentage change in dP/dtmax ([1]; 0.3 μmol/kg i.v., 10 min): 16%; Percentage change in dP/dtmax ([1]; 0.3 μmol/kg i.v., 30 min): 21%; Percentage change in dP/dtmax ([1]; 1 μmol/kg i.v., 0-10 min (Maximum)): 97%; Percentage change in dP/dtmax ([1]; 1 μmol/kg i.v., 10 min): 45%; Percentage change in dP/dtmax ([1]; 1 μmol/kg i.v., 30 min): 46%; Percentage change in dP/dtmax ([1]; 3 μmol/kg i.v., 0-10 min (Maximum)): 164%; Percentage change in dP/dtmax ([1]; 3 μmol/kg i.v., 10 min): 90%; Percentage change in dP/dtmax ([1]; 3 μmol/kg i.v., 30 min): 66%; Doubling of the latency period ([2]; 100 μmol/kg p.o.): 6 N of 10 animals; Tripling of the latency period ([2]; 100 μmol/kg p.o.): 6 N of 10 animals; Doubling of the latency period ([2]; 300 μmol/kg p.o.): 10 N of 10 animals; Tripling of the latency period ([2]; 300 μmol/kg p.o.): 8 N of 10 animals; protective effect compared with theophylline ([2]; result in words): greater protective effect |
| COc1ccc(-c2ccc(=O)[nH]n2)cc1OC(C)C [Serial No. 11, 6-(4-methoxy-3-isopropoxyphenyl)-3[2H]pyridazinone] | – | > 1000 | – | – | – | – | 600 | 0.0977 | 10000 | 1370 | inhibition of histamine-induced bronchospasm, TVi ([7]; 2 min): 117%; inhibition of histamine-induced bronchospasm, Vmaxe ([7]; 2 min): 123%; inhibition of histamine-induced bronchospasm, Vmaxi ([7]; 2 min): 152%; inhibition of histamine-induced bronchospasm, TVi ([7]; 10 min): 84%; inhibition of histamine-induced bronchospasm, Vmaxe ([7]; 10 min): 109%; inhibition of histamine-induced bronchospasm, Vmaxi ([7]; 10 min): 113%; inhibition of histamine-induced bronchospasm, TVi ([7]; 20 min): 54%; inhibition of histamine-induced bronchospasm, Vmaxe ([7]; 20 min): 63%; inhibition of histamine-induced bronchospasm, Vmaxi ([7]; 20 min): 89%; inhibition of histamine-induced bronchospasm, TVi ([7]; 30 min): 38%; inhibition of histamine-induced bronchospasm, Vmaxe ([7]; 30 min): 43%; inhibition of histamine-induced bronchospasm, Vmaxi ([7]; 30 min): 47%; inhibition of histamine-induced bronchospasm, TVi ([7]; 60 min): 5%; inhibition of histamine-induced bronchospasm, Vmaxe ([7]; 60 min): 6%; inhibition of histamine-induced bronchospasm, Vmaxi ([7]; 60 min): 9%; inhibition of histamine-induced bronchospasm compared with theophylline ([7]; result in words): significantly more effective than theophylline |
| CCCOc1ccc(-c2ccc(=O)[nH]n2)cc1OC [compound 2] | – | 7.24 | – | – | – | – | 530 | 0.417 | – | – | Emax ([4]; after 300 nMol, read-out: Emax left-ventricular pressure): 59%; Emax ([4]; at Emax, 300 nMol, read-out: Percentage increase in heart rate at Emax): 13% |
| C=CCOc1cc(-c2ccc(=O)[nH]n2)ccc1OC [compound 9] | 331 | 1.26 | 53 | 21 | 7 | 50 | 610 | 0.537 | 2.3 | 251 | – |
| COc1ccc(-c2ccc(=O)[nH]n2)cc1 [compound 19] | 4.7 | 170 | – | – | 6 | 160 | – | 8.91 | 19.1 | 15.1 | Emax ([4]; after 1000 nMol, read-out: Emax left-ventricular pressure): 45%; Emax ([4]; at Emax, 1000 nMol, read-out: Percentage increase in heart rate at Emax): 11%; tolerated dose ([5]; mouse, 10080 min): > 400 |
